# Measured values published in ChEMBL document CHEMBL3297690, “Discovery and development of Janus kinase (JAK) inhibitors for inflammatory diseases” (J Med Chem, 2014).
# Columns and labels:
# [1] = biological target: T1, Tyrosine-protein kinase JAK2 (Homo sapiens, UniProt O60674)
# [2] = biological target: T1, Tyrosine-protein kinase JAK2; assay type: cell-based, Blood, CD34+ cell
# [3] = biological target: T2, Tyrosine-protein kinase JAK1 (Homo sapiens, UniProt P23458)
# [4] = biological target: T1, Tyrosine-protein kinase JAK2; remark: listed apart in the source
# [5] = biological target: T3, Tyrosine-protein kinase JAK3 (Mus musculus, UniProt Q62137); assay type: cell-based
# T3 sequence (Q62137 whole entry): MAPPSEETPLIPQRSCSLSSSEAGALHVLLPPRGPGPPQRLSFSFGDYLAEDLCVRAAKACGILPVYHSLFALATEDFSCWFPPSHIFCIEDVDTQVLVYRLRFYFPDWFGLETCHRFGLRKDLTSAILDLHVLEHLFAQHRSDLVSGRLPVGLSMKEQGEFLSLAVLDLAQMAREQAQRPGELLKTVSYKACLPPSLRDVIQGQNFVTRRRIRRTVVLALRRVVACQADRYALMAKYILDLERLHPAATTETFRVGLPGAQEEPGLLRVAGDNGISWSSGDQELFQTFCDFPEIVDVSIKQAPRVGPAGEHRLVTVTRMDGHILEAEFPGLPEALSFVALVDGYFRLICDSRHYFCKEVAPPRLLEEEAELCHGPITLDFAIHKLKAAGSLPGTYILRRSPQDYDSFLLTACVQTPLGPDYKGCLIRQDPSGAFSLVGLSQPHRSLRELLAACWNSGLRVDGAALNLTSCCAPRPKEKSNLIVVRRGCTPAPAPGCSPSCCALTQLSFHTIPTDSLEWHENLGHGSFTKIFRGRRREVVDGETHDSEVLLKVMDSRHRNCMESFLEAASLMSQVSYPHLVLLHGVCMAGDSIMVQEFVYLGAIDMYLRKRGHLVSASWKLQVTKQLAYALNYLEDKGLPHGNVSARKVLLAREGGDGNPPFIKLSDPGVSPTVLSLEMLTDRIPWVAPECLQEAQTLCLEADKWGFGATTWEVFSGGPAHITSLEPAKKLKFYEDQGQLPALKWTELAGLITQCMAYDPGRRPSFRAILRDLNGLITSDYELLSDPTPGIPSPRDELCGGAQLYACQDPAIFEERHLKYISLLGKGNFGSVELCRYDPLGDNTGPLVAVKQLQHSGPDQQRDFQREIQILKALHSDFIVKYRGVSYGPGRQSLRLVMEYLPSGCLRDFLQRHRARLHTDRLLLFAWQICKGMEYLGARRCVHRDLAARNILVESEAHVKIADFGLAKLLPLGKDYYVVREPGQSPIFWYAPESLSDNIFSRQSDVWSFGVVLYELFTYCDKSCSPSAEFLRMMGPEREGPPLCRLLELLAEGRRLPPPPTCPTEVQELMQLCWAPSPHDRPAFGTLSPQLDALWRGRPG
# [6] = biological target: T2, Tyrosine-protein kinase JAK1; assay type: cell-based
# T1 sequence (O60674 whole entry): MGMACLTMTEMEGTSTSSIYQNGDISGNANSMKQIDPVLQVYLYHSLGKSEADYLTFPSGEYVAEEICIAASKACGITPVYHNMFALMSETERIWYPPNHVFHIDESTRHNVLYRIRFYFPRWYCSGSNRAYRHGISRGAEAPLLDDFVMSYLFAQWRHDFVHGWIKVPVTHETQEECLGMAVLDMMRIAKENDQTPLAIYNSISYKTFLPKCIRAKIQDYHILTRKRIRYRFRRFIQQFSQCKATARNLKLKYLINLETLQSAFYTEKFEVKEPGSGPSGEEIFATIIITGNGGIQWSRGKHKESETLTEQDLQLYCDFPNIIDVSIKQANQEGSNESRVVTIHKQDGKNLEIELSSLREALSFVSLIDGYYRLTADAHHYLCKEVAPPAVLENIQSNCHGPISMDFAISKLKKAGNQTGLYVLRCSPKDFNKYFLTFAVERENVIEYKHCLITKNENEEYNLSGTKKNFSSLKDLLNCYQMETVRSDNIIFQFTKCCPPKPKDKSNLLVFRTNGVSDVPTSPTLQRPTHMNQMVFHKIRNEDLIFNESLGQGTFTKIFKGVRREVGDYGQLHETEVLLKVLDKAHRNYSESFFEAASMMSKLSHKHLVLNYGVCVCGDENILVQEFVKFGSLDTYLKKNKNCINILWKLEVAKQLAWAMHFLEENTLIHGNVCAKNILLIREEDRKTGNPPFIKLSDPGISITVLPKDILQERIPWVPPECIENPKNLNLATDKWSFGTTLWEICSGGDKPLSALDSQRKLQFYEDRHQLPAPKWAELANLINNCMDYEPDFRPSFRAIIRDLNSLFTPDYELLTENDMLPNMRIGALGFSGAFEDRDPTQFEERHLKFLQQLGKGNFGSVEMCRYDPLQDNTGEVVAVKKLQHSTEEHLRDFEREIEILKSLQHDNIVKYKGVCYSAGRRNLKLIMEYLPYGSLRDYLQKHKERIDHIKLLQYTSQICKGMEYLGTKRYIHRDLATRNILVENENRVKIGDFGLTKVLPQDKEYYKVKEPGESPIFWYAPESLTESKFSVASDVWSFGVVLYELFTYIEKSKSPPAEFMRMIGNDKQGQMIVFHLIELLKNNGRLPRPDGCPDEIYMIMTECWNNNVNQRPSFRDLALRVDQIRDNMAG
# T2 sequence (P23458 whole entry): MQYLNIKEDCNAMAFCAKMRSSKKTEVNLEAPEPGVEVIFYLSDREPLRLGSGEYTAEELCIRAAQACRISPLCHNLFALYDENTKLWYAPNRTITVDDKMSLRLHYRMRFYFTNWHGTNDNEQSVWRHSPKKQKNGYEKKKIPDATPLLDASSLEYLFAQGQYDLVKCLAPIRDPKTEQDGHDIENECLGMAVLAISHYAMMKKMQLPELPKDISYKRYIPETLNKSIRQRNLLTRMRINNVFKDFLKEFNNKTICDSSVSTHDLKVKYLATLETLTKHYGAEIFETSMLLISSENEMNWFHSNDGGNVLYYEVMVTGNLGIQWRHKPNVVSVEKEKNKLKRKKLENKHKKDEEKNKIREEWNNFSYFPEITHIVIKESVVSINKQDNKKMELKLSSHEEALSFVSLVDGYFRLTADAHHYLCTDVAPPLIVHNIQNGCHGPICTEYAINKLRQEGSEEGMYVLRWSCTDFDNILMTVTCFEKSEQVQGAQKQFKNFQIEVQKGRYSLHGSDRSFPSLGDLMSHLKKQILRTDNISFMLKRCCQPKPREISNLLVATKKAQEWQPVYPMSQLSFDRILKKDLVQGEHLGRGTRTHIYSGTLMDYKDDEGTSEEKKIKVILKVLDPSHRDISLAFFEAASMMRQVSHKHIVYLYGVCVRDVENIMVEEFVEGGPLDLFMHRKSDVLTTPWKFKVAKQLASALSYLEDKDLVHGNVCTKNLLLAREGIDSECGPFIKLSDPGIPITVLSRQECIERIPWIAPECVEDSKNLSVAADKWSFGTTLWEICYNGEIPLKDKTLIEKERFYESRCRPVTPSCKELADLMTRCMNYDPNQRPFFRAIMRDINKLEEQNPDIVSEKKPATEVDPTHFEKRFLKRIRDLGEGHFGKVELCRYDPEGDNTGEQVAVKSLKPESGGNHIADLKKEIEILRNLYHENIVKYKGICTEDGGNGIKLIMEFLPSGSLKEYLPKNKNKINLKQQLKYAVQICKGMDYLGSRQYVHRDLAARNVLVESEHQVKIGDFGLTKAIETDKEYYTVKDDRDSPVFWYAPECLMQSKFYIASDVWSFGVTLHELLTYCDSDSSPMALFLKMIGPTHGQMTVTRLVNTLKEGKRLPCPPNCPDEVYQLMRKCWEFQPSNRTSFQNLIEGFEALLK
structure (smiles),measurement,setting,value
CC[C@@](C)(Nc1ccnc(-c2c[nH]c3ncccc23)n1)C(=O)NCC(F)(F)F [DECERNOTINIB],IC50,[1],619 nM
same,Ki,[1],13 nM
same,IC50,[2],> 10000 nM
same,IC50,[3],13.2 nM
same,IC50,[4],24 nM
same,IC50,[5],50 nM
same,IC50,[6],50 nM
